Several values for one entry are separate records, joined by “and”; a condition that tells them apart may be missing. Equal values may be shown once. Marks after values point to notes of the source that are not given here. Non-standard residues stand in square brackets, D forms with d. Residues, ends and D or L forms follow the SMILES beside them.
How the values were obtained:
[1] = biological target: T1, HBx protein (Hepatitis B virus genotype D subtype ayw, UniProt P03165); assay: In vitro binding to recombinantly expressed HBx protein, Biacore 3000
T1 construct: made in house
Protocol: The recombinant plasmid (pET-30a-HBx) expressing HBx gene was self-constructed and preserved (Zhang H, et al. J Biomed Biotechnol, doi:10.1155/2009/289068), and then expression and purification of HBx were conducted according to above reference for the measurement of in vitro binding ability. Biacore 3000 biomolecular interaction analyzing unit (manufactured by GE Healthcare) was utilized to measure in vitro binding ability of polypeptide D-TTK001 to recombinantly expressed HBx protein. Polypeptide at different concentrations were injected for 180 seconds at a rate of 30 μL/min. In dissociation stage, HBS-EP buffer was injected for 900 seconds at a rate of 30 μL/min, then at a rate of 30 μL/min, 2 shots of 1 mM NaOH were injected for 20 seconds to regenerate the chip. All signals were calibrated using channel 1 as the reference channel. Binding measurement was conducted twice, respectively, wherein in the first measurement, HBX was injected into the channel of the coupled polypeptide and the blank channel at concentrations of 0 nM, 10 nM, 50 nM, 100 nM, 500 nM and 600 nM, respectively. Binding time was 180 seconds and dissociation time was 400 seconds. On chip surface, 1 mM NaOH was injected for 20 seconds at a rate of 30 μL/min for regeneration. In the second measurement, HBX was injected into the channel of coupled polypeptide and the blank channel at concentrations of 0 nM, 10 nM, 50 nM, 588 nM, 1 μM, and 2 μM, respectively. Binding time was 180 seconds and dissociation time was 400 seconds. On chip surface, 1 mM NaOH was injected for 20 seconds at a rate of 30 μL/min for regeneration. Results were kinetically analyzed by BIA Evaluation Software.

[2] = tested on: HepAD38 cells; assay: MTT assay, proliferation of HepAD38 cells; type: cell-based; conditions: 0.1, 1, 10, 100 μM, 48 hrs
Protocol: (1) Plating cells: suspend HepAD38 cells at exponential phase in RPMI1640 medium with 10% FBS, and plate 4000-5000 cells in a 96-well plate with 100 μL per well.
(2) Culturing cells: within 12 hrs. for adhesion of cultured cells, add different concentrations of synthesized D-TTK001 (or L-TTK001) polypeptides from Example 1 (0.1 μM, 1 μM, 10 μM and 100 μM) into 8 wells for each concentration, and incubate for 48 hrs. in common condition.
(3) Coloration: add 20 μL of MTT solution (5 mg/mL MTT in PBS buffer (pH7.4)) for each well.
(4) Incubate for 4 hrs., and carefully aspirate off the supernatant from the wells. Add 150 μL of DMSO into each well, shake for 10 min until the crystals were dissolved.
(5) Comparison: Read in an ELISA reader at 490 nm to measure the absorbance for each well. Results were calculated using Student's t-test.

[3] = tested on: HBV transgenic mice; assay: Pathological observation of liver tissue of HBV transgenic mice; type: in vivo; conditions: 5 mg/kg, tail intravenous injection, 3 weeks treatment
Protocol: Prepare D-TTK001 aseptically. Administer 2.5 mg/kg (10 mice) or 5.0 mg/kg (42 mice) based on mice weight through tail intravenous injection in a volume of 50 μL. Administer 50 μL of sterile PBS to blank control group (10 mice). Mice are 6-8 months old, half male and half female. Inject daily for 3 weeks (21 days in total). Take artery blood from mice tail before administration for future measurement of HBV DNA content in mice blood, record as T0 group. Take artery blood from mice tail after one week (T1+ group), two weeks (T2+ group), and three weeks (T3+ group) of administration. Take blood after one week of stopping administration (T4 group). Blood samples were standed in room temperature for 2-4 hours to prepare serum. Store samples in −80° C. refrigerator for future measurement of HBV DNA content in mice blood.
After above experiments on HBV transgenic mice were finished, mice were sacrificed, and liver tissue was taken, fixed with formalin, embed with conventional method, to prepare tissue biopsies, pathological observation was then conducted.

[4] = tested on: HepG2-X cells inoculated tumor in nude mice; assay: Survival of nude mice bearing HepG2-X inoculated tumor; type: in vivo; conditions: 0.1 mg/kg or 5.0 mg/kg, tail i.v. daily for 30 days
Protocol: Suspend HepG2-X cells at exponential phase by treating with trypsin, count the number of cells, dilute to 1×10^7 cells/mL with sterile physiological saline, and then store in ice water. Take two female BALB/C mice of 4˜6 weeks age: i) one mouse in control group, inject 0.2 mL of above diluted cells to the armpit of right forelimb for each mouse, then only inject 0.5 mL of sterilized distilled water (without polypeptide drugs); ii) one mouse in experimental group with an administration dose of 10 mg/kg weight. Inject 0.2 mL of above diluted cells to the armpit of right forelimb for each mouse, after 20 days of injection, remove tumor tissue aseptically, cut into small tissue pieces, back inoculate to female BALB/C mice of 4˜6 weeks age for 18 mice in total. After tumor volume (V=L×W^2 0.5) reaches 100 mm^3, divide 18 mice into 3 groups each having 6 mice. The first group is control group, tail intravenous injecting with sterile PBS. […] Inject daily for 30 days, measure mice weight and tumor volume before each injection, and observe survival time of nude mice. After mice dies, perform analysis using Kaplan-Meier method to plot survival curve, Log-Rank is employed for statistical analysis.

[5] = Acute toxicity test in Kunming white mice; type: in vivo; conditions: 500 mg/kg, tail intravenous injection, observed 24 hrs
Protocol: Control group and experimental group each consists of 10 Kunming white mice, with 5 females and 5 males in each group, respectively. Experimental group were injected with polypeptide D-TTK001 with the concentration of 500 mg/kg (10 mg lyophilized polypeptide dissolved in 0.8 mL sterilized distilled water) by tail intravenous injection; control group were injected with 0.8 mL sterilized distilled water. Consecutively observing the mice for 24 hrs. after injection.

[6] = in vivo; conditions: rat, plasma, iv, 3.5 mg/kg
Excerpt: Blood samples were collected and placed the heparinized test tubes according to blood collection times.

T1 sequence (P03165 whole entry): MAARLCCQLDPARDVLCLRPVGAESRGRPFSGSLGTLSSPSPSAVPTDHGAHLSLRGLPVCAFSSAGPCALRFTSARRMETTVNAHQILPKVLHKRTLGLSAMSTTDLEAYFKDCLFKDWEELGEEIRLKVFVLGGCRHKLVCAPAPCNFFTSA

With `CSCC[C@@H](NC(=O)[C@H](NC(=O)[C@@H](C)NC(=O)[C@@H](CO)NC(=O)CN)C(C)C)C(=O)N[C@H](Cc1ccccc1)C(=O)N[C@H](CO)C(=O)N[C@H](CO)C(=O)N[C@H](CCCCN)C(=O)N[C@H](CCC(=O)O)C(=O)N[C@H](CCCNC(=N)N)C(=O)NCC(=O)O` [D-TTK001, Gly-D-Ser-D-Ala-D-Val-D-Met-D-Phe-D-Ser-D-Ser-D-Lys-D-Glu-D-Arg-Gly] (H-G[dS][dA][dV][dM][dF][dS][dS][dK][dE][dR]G-OH; N-terminus and C-terminus assumed) the Kd ([1]; KD, Biacore 3000, first and second measurement) was 29.9 nM and 40.3 nM, the “in vitro binding to HBx compared with L-polypeptide anti-HBxP1#” value ([1]; comparison in words) was “lower than that of L-polypeptide anti-HBxP1#” and the Kd ([1]; in vitro binding to HBx, in vitro binding analysis results) was 35 nM. The “Minimum effective dose on growth and proliferation (MTT)” value [2] was 10 µM, the “ballooning degeneration of hepatocytes in liver tissue” value [3] was “none of 6 mice in experimental group showed ballooning degeneration of hepatocytes” and the “survival of tumor bearing nude mice” value [4] was “clearly prolonged”. The “acute toxicity: behaviors” value [5] was “do not have abnormal behaviors”, the “acute toxicity: changes in weight as compared with control group” value [5] was “no abnormal changes in weight” and the C0 [6] was 36500 ng/mL. The Vd [6] was 0.207 L/kg, the AUC(0-t) ([6]; AUC0-t, Mean, rats, intravenous injection 3.5 mg/kg, mean of 6) was 20800 ng·h/mL and the AUC(0-inf) ([6]; AUC0-∞, Mean, rats, intravenous injection 3.5 mg/kg, mean of 6) was 24100 ng·h/mL. It also gave a clearance ([6]; CL, Mean, rats, intravenous injection 3.5 mg/kg, mean of 6) of 3 mL/min/kg, a Cmax ([6]; Cmax, Mean, rats, intravenous injection 3.5 mg/kg, mean of 6) of 35800 ng/mL and a half-life ([6]; t½, Mean, rats, intravenous injection 3.5 mg/kg, mean of 6) of 55.3 min.
